According to patent US20140017187A1, “Use of 5-(7-methoxy-3,3-dimethyl-2,3-dihydro-1-benzoxepin-5-yl)-3-methyl-penta-2,4-dienoic acid as a cosmetic” (Merck Patent GmbH, priority 2008, published 2014):

Key:
[1] = tested on: subjects of skin type 3 or 4; assay: Double blind clinical trial of skin whitening activity on forearms, versus placebo formulation; format: in vivo, human; conditions: oil-in-water emulsion with 1.0% Compound vs placebo, forearm, twice a day, 4½ weeks
Description: Skin whitening activity was evaluated in a double blind clinical trial. As study medication a oil-in-water emulsion formulation containing 1.0% of the Compound, in comparison with the same formulation containing no active ingredient (placebo) was used.
The study was executed with subjects of skin type 3 or 4, aged from 18 to 50 years, whereby the active formulation was applied on one forearm twice a day and the placebo formulation on the other forearm for 4½ weeks. Assessment of whitening efficacy was performed on both forearms at day 0, 14 and 28 by visual assessment (examination of pigmentation differences), colorimetric measurements (using Chroma-Meter CR 300, Minolta resulting in L* values, expressing the changes in brightness, and ITA° values Individual Typology Angle expressing the melanin index) as well as digital photographs.

animal models = assay: Toxicity studies in animal models (in house data); conditions: in vivo
human skin model = assay: cDNA microarray gene expression profiling (Affymetrix) of treated skin equivalents, GeneGO MetaCore analysis; format: cell-based
Description: One of the advantages of cDNA microarray is the possibility to observe the expression pattern of the whole genes and compare with different conditions. This is the first study to determine the gene expression profiles of Compound-treated human skin. For the analysis of deregulated gene expression induced by substance Compound, treated and control samples from a human skin model were analyzed with Affymetrix oligonucleotide microarrays. Skin has been among the first organs analysed using DNA-Microarrays. In addition, epidermal keratinocytes have been the target of many studies because they respond to a rich variety of inflammatory and immunmodulating cytokines, hormones, vitamins, ultraviolet (UV) light, toxins and physical injury. Altered gene expression after applying substance Compound was analysed with an Affymetrix system.
For gene expression studies skin equivalents were treated with 50 μL of 2 relevant substance Compound with a concentration of c=50 μM in PBS-buffer/DMSO. Buffer-treated skin equivalents served as controls.
A ratio (log 2) value of zero indicates no regulation, whereas positive (log 2) values indicate an upregulation and negative (log 2) values a downregulation of the relevant gene.
The experiment contains 759 genes with the specified threshold (Appendix A)
GeneGO's Metacore (Pathways and Maps) Software.
Enrichment analysis consists of matching gene IDs for the common, similar and unique sets of the uploaded files with gene IDs in functional ontologies in MetaCore. The ontologies include canonical pathway maps, GeneGo cellular processes, GO cellular processes and diseases categories. The degree of “relevance” to different categories for the uploaded datasets is defined by p-values, so that the lower p-value gets higher priority.

[2] = Mutagenicity studies (in house data)
[3] = tested on: epidermal differentiation proteins; assay: In vitro expression of epidermal differentiation proteins; format: cell-based; conditions: own unpublished results
[4] = Skin sensitization test (in house data)
[5] = cDNA microarray, skin equivalents, 50 μM

## COc1ccc2c(c1)C(/C=C/C(C)=C/C(=O)O)=CC(C)(C)CO2 [Compound, 5-(7-methoxy-3,3-dimethyl-2,3-dihydro-1-benzoxepin-5-yl)-3-methyl-penta-2,4-dienoic acid]
[1]
  skin whitening activity: extraordinary skin whitening activity
Animal models
  cell proliferation or apoptosis: no indication
Human skin model; Caspase 14 precursor, skin equivalents, 50 μM, vs buffer-treated control
  Ratio as Log2 value, gene CASP14: 1.44 Log2
Human skin model; Ceramide glucosyltransferase, skin equivalents, 50 μM, vs buffer-treated control
  Ratio as Log2 value, gene UGCG: 0.7977 Log2
Human skin model; Corneodesmosin precursor, skin equivalents, 50 μM, vs buffer-treated control
  Ratio as Log2 value, gene CDSN: 1.207 Log2
Human skin model; ETS-related transcription factor Elf-3, skin equivalents, 50 μM, vs buffer-treated control
  Ratio as Log2 value, gene ELF3: −1.46 Log2
Human skin model; Epithelial membrane protein 1, skin equivalents, 50 μM, vs buffer-treated control
  Ratio as Log2 value, gene EMP1: 1.278 Log2
Human skin model; Keratin, type I cuticular Ha4, skin equivalents, 50 μM, vs buffer-treated control
  Ratio as Log2 value, gene KRT34: 1.695 Log2
Human skin model; Keratin, type I cytoskeletal 10, skin equivalents, 50 μM, vs buffer-treated control
  Ratio as Log2 value, gene KRT10: −0.6644 Log2
Human skin model; Keratin, type I cytoskeletal 13, skin equivalents, 50 μM, vs buffer-treated control
  Ratio as Log2 value, gene KRT13: −0.8963 Log2
Human skin model; Laminin subunit alpha-3 precursor, skin equivalents, 50 μM, vs buffer-treated control
  Ratio as Log2 value, gene LAMA3: 0.6648 Log2
Human skin model; Laminin subunit beta-3 precursor, skin equivalents, 50 μM, vs buffer-treated control
  Ratio as Log2 value, gene LAMB3: 1.168 Log2
Human skin model; Late cornified envelope protein 2B, skin equivalents, 50 μM, vs buffer-treated control
  Ratio as Log2 value, gene LCE2B: 1.326 Log2
Human skin model; Parathyroid hormone-related protein, skin equivalents, 50 μM, vs buffer-treated control
  Ratio as Log2 value, gene PTHLH: −0.7916 Log2
Human skin model; Protein S100-A7, skin equivalents, 50 μM, vs buffer-treated control
  Ratio as Log2 value, gene S100a7: −0.6784 Log2
Human skin model; Putative transcription factor Ovo-like 1, skin equivalents, 50 μM, vs buffer-treated control
  Ratio as Log2 value, gene OVOL1: 1.064 Log2
Human skin model; cDNA microarray data
  expression of FABP4 and Leptin: significantly upregulated
Human skin model; [5]
  expression of Caspase 14, P57/KIP2: significantly upregulated
  expression of Fibronectin, Elastin and Laminin: upregulated significantly
  expression of HAS2 gene (hyaluronan synthase 2): upregulated
  expression of IL-6, TNF-alpha induced proteins, IL-8, CCL8, CCL2, CXCL2, CXCL12, CXCL3, CXCL5 and ICAM-1: significantly downregulated
  expression of MMP genes MMP9, MMP14, MMP11: down regulated
  expression of RXRA (retinoid X receptors A): upregulation
  expression of S100A7, S100A7A and S100A12: downregulated
  expression of SCARB, INSIG2, ATP binding cassette and VLDLR genes: upregulation
Human skin model; gene ABCG1 (ABCG1_HUMAN, ATP-binding cassette sub-family G member 1)
  Compound vs. Control, ratio Log(2) value: 1.297 Log(2)
Human skin model; gene CASP14 (CASPE_HUMAN, Caspase-14 precursor)
  Compound vs. Control, ratio Log(2) value: 1.44 Log(2)
Human skin model; gene CCL2 (CCL2_HUMAN, C-C motif chemokine 2 precursor)
  Compound vs. Control, ratio Log(2) value: −1.731 Log(2)
Human skin model; gene CCL8 (CCL8_HUMAN, C-C motif chemokine 8 precursor)
  Compound vs. Control, ratio Log(2) value: −2.505 Log(2)
Human skin model; gene CDKN1C (CDN1C_HUMAN, Cyclin-dependent kinase inhibitor 1C)
  Compound vs. Control, ratio Log(2) value: 0.8737 Log(2)
Human skin model; gene CERK (CERK1_HUMAN, Ceramide kinase)
  Compound vs. Control, ratio Log(2) value: 0.729 Log(2)
Human skin model; gene CLDN17 (CLD17_HUMAN, Claudin-17)
  Compound vs. Control, ratio Log(2) value: 2.19 Log(2)
Human skin model; gene COL4A3BP (C43BP_HUMAN, Collagen type IV alpha-3-binding protein)
  Compound vs. Control, ratio Log(2) value: 1.233 Log(2)
Human skin model; gene CXCL2 (MIP2A_HUMAN, Macrophage inflammatory protein 2-alpha precursor)
  Compound vs. Control, ratio Log(2) value: −1.267 Log(2)
Human skin model; gene CXCL3 (MIP2B_HUMAN, Macrophage inflammatory protein 2-beta precursor)
  Compound vs. Control, ratio Log(2) value: −0.723 Log(2)
Human skin model; gene CXCL5 (CXCL5_HUMAN, C-X-C motif chemokine 5 precursor)
  Compound vs. Control, ratio Log(2) value: −0.8263 Log(2)
Human skin model; gene CXCL12 (SDF1_HUMAN, Stromal cell-derived factor 1 precursor)
  Compound vs. Control, ratio Log(2) value: −0.8377 Log(2)
Human skin model; gene EGFR (EGFR_HUMAN, Epidermal growth factor receptor precursor)
  Compound vs. Control, ratio Log(2) value: 0.9876 Log(2)
Human skin model; gene ELF3 (ELF3_HUMAN, ETS-related transcription factor Elf-3)
  Compound vs. Control, ratio Log(2) value: −1.46 Log(2)
Human skin model; gene ELN (ELN_HUMAN, Elastin precursor)
  Compound vs. Control, ratio Log(2) value: 0.7751 Log(2)
Human skin model; gene EMP1 (EMP1_HUMAN, Epithelial membrane protein 1)
  Compound vs. Control, ratio Log(2) value: 1.278 Log(2)
Human skin model; gene EMR2 (EMR2_HUMAN, EGF-like module-containing mucin-like hormone receptor-like 2 precursor)
  Compound vs. Control, ratio Log(2) value: 1.286 Log(2)
Human skin model; gene FABP4 (FABPA_HUMAN, Fatty acid-binding protein, adipocyte)
  Compound vs. Control, ratio Log(2) value: 2.125 Log(2)
Human skin model; gene FGF11 (FGF11_HUMAN, Fibroblast growth factor 11)
  Compound vs. Control, ratio Log(2) value: 0.9322 Log(2)
Human skin model; gene FLNB (FLNB_HUMAN, Filamin-B)
  Compound vs. Control, ratio Log(2) value: 0.6681 Log(2)
Human skin model; gene FN1 (FINC_HUMAN, Fibronectin precursor)
  Compound vs. Control, ratio Log(2) value: 1.364 Log(2)
Human skin model; gene GPC4 (GPC4_HUMAN, Glypican-4 precursor)
  Compound vs. Control, ratio Log(2) value: 0.7558 Log(2)
Human skin model; gene GPC6 (GPC6_HUMAN, Glypican-6 precursor)
  Compound vs. Control, ratio Log(2) value: 0.6711 Log(2)
Human skin model; gene GPX7 (GPX7_HUMAN, Glutathione peroxidase 7 precursor)
  Compound vs. Control, ratio Log(2) value: 0.8162 Log(2)
Human skin model; gene HAS2 (HAS2_HUMAN, Hyaluronan synthase 2)
  Compound vs. Control, ratio Log(2) value: 0.8154 Log(2)
Human skin model; gene ICAM1 (ICAM1_HUMAN, Intercellular adhesion molecule 1 precursor)
  Compound vs. Control, ratio Log(2) value: −1.612 Log(2)
Human skin model; gene IL6 (IL6_HUMAN, Interleukin-6 precursor)
  Compound vs. Control, ratio Log(2) value: −1.09 Log(2)
Human skin model; gene IL6ST (IL6RB_HUMAN, Interleukin-6 receptor subunit beta precursor)
  Compound vs. Control, ratio Log(2) value: −1.628 Log(2)
Human skin model; gene IL8 (IL8_HUMAN, Interleukin-8 precursor)
  Compound vs. Control, ratio Log(2) value: −0.6883 Log(2)
Human skin model; gene INSIG2 (INSI2_HUMAN, Insulin-induced gene 2 protein)
  Compound vs. Control, ratio Log(2) value: 0.6645 Log(2)
Human skin model; gene ITGB5 (ITB5_HUMAN, Integrin beta-5 precursor)
  Compound vs. Control, ratio Log(2) value: 0.7305 Log(2)
Human skin model; gene ITIH5 (ITIH5_80760, inter-alpha (globulin) inhibitor H5)
  Compound vs. Control, ratio Log(2) value: 1.192 Log(2)
Human skin model; gene LAMA3 (LAMA3_HUMAN, Laminin subunit alpha-3 precursor)
  Compound vs. Control, ratio Log(2) value: 0.6648 Log(2)
Human skin model; gene LAMB3 (LAMB3_HUMAN, Laminin subunit beta-3 precursor)
  Compound vs. Control, ratio Log(2) value: 1.168 Log(2)
Human skin model; gene LAMC1 (LAMC1_HUMAN, Laminin subunit gamma-1 precursor)
  Compound vs. Control, ratio Log(2) value: 0.7744 Log(2)
Human skin model; gene LEP (LEP_HUMAN, Leptin precursor)
  Compound vs. Control, ratio Log(2) value: 3.891 Log(2)
Human skin model; gene LEPR (LEPR_HUMAN, Leptin receptor precursor)
  Compound vs. Control, ratio Log(2) value: 0.7216 Log(2)
Human skin model; gene MMP9 (MMP9_HUMAN, Matrix metalloproteinase-9 precursor)
  Compound vs. Control, ratio Log(2) value: −0.8347 Log(2)
Human skin model; gene MMP11 (MMP11_HUMAN, Stromelysin-3 precursor)
  Compound vs. Control, ratio Log(2) value: −1.085 Log(2)
Human skin model; gene MMP14 (MMP14_HUMAN, Matrix metalloproteinase-14 precursor)
  Compound vs. Control, ratio Log(2) value: −0.6909 Log(2)
Human skin model; gene PLOD2 (PLOD2_HUMAN, Procollagen-lysine,2-oxoglutarate 5-dioxygenase 2 precursor)
  Compound vs. Control, ratio Log(2) value: 1.455 Log(2)
Human skin model; gene RXRA (RXRA_HUMAN, Retinoic acid receptor RXR-alpha)
  Compound vs. Control, ratio Log(2) value: 0.7793 Log(2)
Human skin model; gene S100A7 (S10A7_HUMAN, Protein S100-A7)
  Compound vs. Control, ratio Log(2) value: −0.6784 Log(2)
Human skin model; gene S100A7A (S1A7A_HUMAN, Protein S100-A7A)
  Compound vs. Control, ratio Log(2) value: −2.659 Log(2)
Human skin model; gene S100A12 (S10AC_HUMAN, Protein S100-A12)
  Compound vs. Control, ratio Log(2) value: −0.7202 Log(2)
Human skin model; gene SCARB1 (SCRB1_HUMAN, Scavenger receptor class B member 1)
  Compound vs. Control, ratio Log(2) value: 0.8349 Log(2)
Human skin model; gene TGFA (TGFA_HUMAN, Protransforming growth factor alpha precursor)
  Compound vs. Control, ratio Log(2) value: 0.8031 Log(2)
Human skin model; gene UGCG (CEGT_HUMAN, Ceramide glucosyltransferase)
  Compound vs. Control, ratio Log(2) value: 0.7977 Log(2)
Human skin model; gene VLDLR (VLDLR_HUMAN, Very low-density lipoprotein receptor precursor)
  Compound vs. Control, ratio Log(2) value: 0.9666 Log(2)
Human skin model; old skin (literature): S100A7 upregulated, GPC6 downregulated
  effect on GPC6 and S100A7 genes compared with old skin: opposite effect
[2]
  genotoxicity: not genotoxic
[3]
  expression of epidermal differentiation proteins: increased expression
[4]
  skin sensitization: no skin sensitization
